The values that follow are results of earlier work, collected in US20110129510A1, “FIBROUS SURFACE STRUCTURE CONTAINING ACTIVE INGREDIENTS WITH CONTROLLED RELEASE OF ACTIVE INGREDIENTS, USE THEREOF AND METHOD FOR THE PRODUCTION THEREOF” (BASF SE, priority 2008, published 2011).

Converted amounts (≈) assume the structure as drawn. Like-named read-outs stand apart in the source and are kept apart here. A value given as a limit tells only on which side of the number the result lay.

Turning to `NC(=O)N1c2ccccc2C=Cc2ccccc21` [Carbamazipine], for the setting “RT”, the Solubility in water was 945.1 µg/mL (≈ 4000 µM). As to `Clc1ccccc1C(c1ccccc1)(c1ccccc1)n1ccnc1` [Clotrimazole], the Solubility in water (25° C.) was <10 µg/mL. Consider `CCOC(=O)C1=C(C)NC(C)=C(C(=O)OC)C1c1cccc(Cl)c1Cl` (stereo not drawn) [Felodipine], for which the Solubility in water (22° C.) was 4.53 µg/mL (≈ 11.8 µM).

As to `COC1=CC(=O)C[C@@H](C)[C@]12Oc1c(Cl)c(OC)cc(OC)c1C2=O` [Griseofulvin], the Solubility in water (25° C.) was 0.03685 µg/mL (≈ 0.104 µM). Consider `COc1ccc2c(c1)c(CC(=O)O)c(C)n2C(=O)c1ccc(Cl)cc1` [Indomethacin], for which the Solubility in water (25° C.) is 14 µg/mL (≈ 39.1 µM). With `CC(=O)N1CCN(c2ccc(OCC3COC(Cn4ccnc4)(c4ccc(Cl)cc4Cl)O3)cc2)CC1` (stereo not drawn) [Ketoconazole], the Solubility in water (37° C.) is 80 µg/mL (≈ 151 µM).
